# ChEMBL document CHEMBL2150986, “Synthesis and biological evaluation of 1-benzylidene-3,4-dihydronaphthalen-2-one as a new class of microtubule-targeting agents” (J Med Chem, 2012)
# How the values were obtained:
# [1] = tested on: Mus musculus; assay: Toxicity in ICR mouse assessed as body weight loss at 50 mg/kg, ip administered on day 1 measured for 10 days relative to vehicle-treated control; type: organism-based; design: dose 50 mg/kg, route intraperitoneal; settings: in vivo, 240 h
# [2] = tested on: Mus musculus; assay: Toxicity in nude BALB/c mouse xenografted with human HT-29 cells assessed as effect on lymphocyte count at 30 mg/kg, ip qd after 21 day (reference value: 15.88 +/- 0.41 x 10^3 mm'-3); type: organism-based; design: dose 30 mg/kg, route intraperitoneal; settings: in vivo, 504 h
# [3] = tested on: Mus musculus; assay: Toxicity in nude BALB/c mouse xenografted with human HT-29 cells assessed as effect on platelet count at 30 mg/kg, ip qd after 21 days (reference value: 1509 +/- 34 x 10^3 mm'-3); type: organism-based; design: dose 30 mg/kg, route intraperitoneal; settings: in vivo, 504 h
# [4] = tested on: Mus musculus; assay: Toxicity in nude BALB/c mouse xenografted with human HT-29 cells assessed as change in spleen weight at 50 mg/kg, ip qd after 21 days relative to vehicle-treated control; type: organism-based; design: dose 50 mg/kg, route intraperitoneal; settings: in vivo, 504 h
# [5] = tested on: Mus musculus; assay: Toxicity in nude BALB/c mouse xenografted with human HT-29 cells assessed as effect on ALT level at 50 mg/kg, ip qd after 21 days (reference value: 28 +/- 0.4 IU/L); type: organism-based; design: dose 50 mg/kg, route intraperitoneal; settings: in vivo, 504 h
# [6] = tested on: Mus musculus; assay: Toxicity in nude BALB/c mouse xenografted with human HT-29 cells assessed as effect on lymphocyte count at 50 mg/kg, ip qd after 21 days (reference value: 15.88 +/- 0.41 x 10^3 mm'-3); type: organism-based; design: dose 50 mg/kg, route intraperitoneal; settings: in vivo, 504 h
# [7] = tested on: Mus musculus; assay: Toxicity in nude BALB/c mouse xenografted with human HT-29 cells assessed as change in liver weight at 50 mg/kg, ip qd after 21 days relative to vehicle-treated control; type: organism-based; design: dose 50 mg/kg, route intraperitoneal; settings: in vivo, 504 h
# [8] = tested on: Mus musculus; assay: Toxicity in nude BALB/c mouse xenografted with human HT-29 cells assessed as effect on ALT level at 30 mg/kg, ip qd after 21 days (reference value: 28 +/- 0.4 IU/L); type: organism-based; design: dose 30 mg/kg, route intraperitoneal; settings: in vivo, 504 h
# [9] = tested on: Mus musculus; assay: Toxicity in nude BALB/c mouse xenografted with human HT-29 cells assessed as body weight change at 50 mg/kg, ip qd after 21 days (reference value: 2.7 g); type: organism-based; design: dose 50 mg/kg, route intraperitoneal; settings: in vivo, 504 h
# [10] = tested on: Mus musculus; assay: Toxicity in nude BALB/c mouse xenografted with human HT-29 cells assessed as effect on ALP level at 30 mg/kg, ip qd after 21 days (reference value: 107.6 +/- 0.8 IU/L); type: organism-based; design: dose 30 mg/kg, route intraperitoneal; settings: in vivo, 504 h
# [11] = tested on: Mus musculus; assay: Toxicity in nude BALB/c mouse xenografted with human HT-29 cells assessed as mortality at 30 mg/kg, ip qd after 21 days; type: organism-based; design: dose 30 mg/kg, route intraperitoneal; settings: in vivo, 504 h
# [12] = tested on: Mus musculus; assay: Toxicity in nude BALB/c mouse xenografted with human HT-29 cells assessed as effect on WBC count at 30 mg/kg, ip qd after 21 days (reference value: 25.38 +/- 0.22 x 10^3 mm'-3); type: organism-based; design: dose 30 mg/kg, route intraperitoneal; settings: in vivo, 504 h
# [13] = tested on: HT-29; assay: Antitumor activity against human HT-29 cells xenografted in nude BALB/c mouse assessed as decrease in tumor volume at 30 mg/kg, ip qd measured on day 21 relative to vehicle-treated control; type: functional; settings: route intraperitoneal
# [14] = tested on: Mus musculus; assay: Toxicity in nude BALB/c mouse xenografted with human HT-29 cells assessed as mortality at 50 mg/kg, ip qd after 21 days; type: organism-based; design: dose 50 mg/kg, route intraperitoneal; settings: in vivo, 504 h
# [15] = tested on: Mus musculus; assay: Toxicity in nude BALB/c mouse xenografted with human HT-29 cells assessed as change in kidney weight at 50 mg/kg, ip qd after 21 days relative to vehicle-treated control; type: organism-based; design: dose 50 mg/kg, route intraperitoneal; settings: in vivo, 504 h
# [16] = tested on: MDA-MB-435; assay: cells; settings: Homo sapiens, MDA-MB-435, 72 h
# Description: Cytotoxicity against human MDA-MB-435 cells after 72 hrs by MTT assay
# [17] = tested on: Mus musculus; assay: Toxicity in nude BALB/c mouse xenografted with human HT-29 cells assessed as body weight change at 30 mg/kg, ip qd after 21 days (reference value: 2.7 g); type: organism-based; design: dose 30 mg/kg, route intraperitoneal; settings: in vivo, 504 h
# [18] = tested on: HT-29; assay: Antitumor activity against human HT-29 cells xenografted in nude BALB/c mouse assessed as decrease in tumor volume at 50 mg/kg, ip qd measured on day 21 relative to vehicle-treated control; type: functional; settings: route intraperitoneal
# [19] = tested on: Mus musculus; assay: Toxicity in nude BALB/c mouse xenografted with human HT-29 cells assessed as effect on platelet count at 50 mg/kg, ip qd after 21 days (reference value: 1509 +/- 34 x 10^3 mm'-3); type: organism-based; design: dose 50 mg/kg, route intraperitoneal; settings: in vivo, 504 h
# [20] = tested on: Mus musculus; assay: Toxicity in nude BALB/c mouse xenografted with human HT-29 cells assessed as effect on WBC count at 50 mg/kg, ip qd after 21 days (reference value: 25.38 +/- 0.22 x 10^3 mm'-3); type: organism-based; design: dose 50 mg/kg, route intraperitoneal; settings: in vivo, 504 h
# [21] = tested on: Mus musculus; assay: Toxicity in ICR mouse assessed as mortality at 50 mg/kg, ip administered on day 1; type: organism-based; design: dose 50 mg/kg, route intraperitoneal; settings: in vivo
# [22] = tested on: Mus musculus; assay: Toxicity in nude BALB/c mouse xenografted with human HT-29 cells assessed as effect on ALP level at 50 mg/kg, ip qd after 21 days (reference value: 107.6 +/- 0.8 IU/L); type: organism-based; design: dose 50 mg/kg, route intraperitoneal; settings: in vivo, 504 h
# [23] = tested on: CCRF-CEM; assay: Cytotoxicity against human CEM cells after 72 hrs by MTT assay; type: functional, cell-based
# [24] = tested on: HCT-116; assay: cells; settings: Homo sapiens, HCT-116, 72 h
smiles,measurement,setting,value
COc1ccc(/C=C\c2cc(OC)c(OC)c(OC)c2)cc1O [COMBRETASTATIN A4],Activity,[1],Toxic
same,Activity,[2],10.62 ×10³ /mm3
same,Activity,[3],1923 ×10³ /mm3
same,Activity,[4],Toxic
same,Activity,[5],66.3 IU/L
same,Activity,[6],4.14 ×10³ /mm3
same,Activity,[7],Toxic
same,Activity,[8],25 IU/L
same,Activity,[9],1.8 g
same,Activity,[10],105.3 IU/L
same,Activity,[11],Non-toxic
same,Activity,[12],19.34 ×10³ /mm3
same,T/C,[13],53%
same,Activity,[14],Non-toxic
same,Activity,[15],Toxic
same,IC50,[16],1 nM
same,Activity,[17],1.7 g
same,T/C,[18],47%
same,Activity,[19],2206 ×10³ /mm3
same,Activity,[20],12.09 ×10³ /mm3
same,Activity,[21],Non-toxic
same,Activity,[22],149.3 IU/L
same,IC50,[23],1 nM
same,IC50,[24],1 nM
